What all share (assay type): cell-based
In assay [1] the target is T1, VDR (Homo sapiens, UniProt P11473).
T1 construct: expressed in transfected cells; host or cells: HEK293T
T1 sequence (P11473 97-427 limits assumed): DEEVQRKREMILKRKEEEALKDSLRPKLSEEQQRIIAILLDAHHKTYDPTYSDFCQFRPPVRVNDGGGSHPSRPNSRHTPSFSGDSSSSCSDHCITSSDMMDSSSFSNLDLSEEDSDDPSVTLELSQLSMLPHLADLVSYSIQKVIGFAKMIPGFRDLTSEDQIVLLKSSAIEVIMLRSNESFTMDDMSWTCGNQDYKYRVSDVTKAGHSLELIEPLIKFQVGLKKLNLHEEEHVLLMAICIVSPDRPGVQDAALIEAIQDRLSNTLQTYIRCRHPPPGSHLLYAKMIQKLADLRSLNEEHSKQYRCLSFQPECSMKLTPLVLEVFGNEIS
The experiment in a line: Gal4-hybrid reporter gene assay VDR (selectivity). The following applies: mean, n ≥ 3, Fig. 8. The procedure: (§1) NR modulation was determined as described previously[45] in Gal4 hybrid reporter gene assays in HEK293T cells (German Collection of Microorganisms and Cell Culture GmbH, DSMZ) using pFR-Luc (Stratagene, La Jolla, CA, USA; reporter), pRL-SV40 (Promega, Madison, WI, USA; internal control) and the hybrid receptor clones pFA-CMV-hTHRα-LBD,[46] pFA-CMV-hPPARγ-LBD,[47] pFA-CMV-hFXR-LBD,[48] and pFA-CMV-hRXRα-LBD,[49] coding for the hinge region and ligand binding domain of the canonical isoform of the respective NR. Cells were cultured in Dulbecco's modified Eagle's medium (DMEM), high glucose supplemented with 10% fetal calf serum (FCS), sodium pyruvate (1 mM), penicillin (100 U mL^−1), and streptomycin (100 μg mL^−1) at 37 °C and 5% CO2 and seeded in 96-well plates (3 × 10^4 cells per well). After 24 h, medium was changed to Opti-MEM without supplements and cells were transiently transfected using Lipofectamine LTX reagent (Invitrogen, Carlsbad, CA, USA) according to the manufacturer's protocol. Five hours after transfection, cells were incubated with the test compounds in Opti-MEM supplemented with penicillin (100 U mL^−1), streptomycin (100 μg mL^−1) and 0.1% DMSO for 16 h before luciferase activity was measured using the Dual-Glo Luciferase Assay System (Promega) according to the manufacturer's protocol on a Tecan Spark luminometer (Tecan Deutschland GmbH, Crailsheim, Germany). Firefly luminescence was divided by Renilla luminescence and multiplied by 1000 resulting in relative light units (RLU) to normalize for transfection efficiency and cell growth. Fold activation was obtained by dividing the mean RLU of test compound by the mean RLU of the untreated control. All samples were tested in at least three biologically independent experiments in duplicates. For dose–response curve fitting and calculation of EC50 values, the equation “[agonist] vs. response − variable slope (four parameters)” was used in GraphPad Prism (version 7.00, GraphPad Software, La Jolla, CA, USA). For selectivity profiling, the hybrid reporter gene assay was performed with Gal4 fusion receptor plasmids for RARα, PPARα, PPARδ, VDR, CAR and LXRα. The following reference agonists were used: triiodothyronine (1 μM, THR), all-trans retinoic acid (1 μM, RAR), GW7647 (1 μM, PPARα), pioglitazone (1 μM, PPARγ), L165041 (1 μM, PPARδ), calcitriol (1 μM, VDR), CITCO (1 μM, CAR), T0901317 (1 μM, LXR), GW4064 (1 μM, FXR), bexarotene (1 μM, RXR).
On the technique in general: Reporter assays use an easily measured gene product as a stand-in for the process of interest.

Assay [2] has as its target T2, RXRα (Homo sapiens, UniProt P19793).
T2 construct: expressed in transfected cells; host or cells: HEK293T
T2 sequence (P19793 227-458 limits assumed): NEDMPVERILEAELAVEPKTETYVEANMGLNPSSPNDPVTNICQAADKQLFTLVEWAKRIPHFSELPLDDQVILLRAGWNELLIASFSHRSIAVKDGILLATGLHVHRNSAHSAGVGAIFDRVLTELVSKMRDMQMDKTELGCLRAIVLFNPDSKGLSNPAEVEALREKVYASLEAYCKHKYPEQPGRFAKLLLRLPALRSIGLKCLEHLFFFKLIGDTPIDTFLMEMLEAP
The experiment in a line: Gal4-hybrid reporter gene assay RXRα. The following applies: n ≥ 3; for fold act. RXRα: mean, Fig. 8; for EC50 / EC50 RXRα: HEK293T, Gal4-hybrid reporter, Inactive = tested 1–300 μM; for EC50 / max. fold activation RXRα / EC50 RXRα: mean ± S.E.M.; for max. fold activation RXRα: maximum reporter activation vs DMSO (0.1%) treated cells. The procedure:
as §1

The test system of assay [3] is CAR. The experiment in a line: Gal4-hybrid reporter gene assay CAR (selectivity). As to conditions: mean, n ≥ 3, Fig. 8. The procedure: as §1
Assay [4] has as its target T3, PPARα (Homo sapiens, UniProt Q07869).
T3 construct: expressed in transfected cells; host or cells: HEK293T
T3 sequence (Q07869 167-468 limits assumed): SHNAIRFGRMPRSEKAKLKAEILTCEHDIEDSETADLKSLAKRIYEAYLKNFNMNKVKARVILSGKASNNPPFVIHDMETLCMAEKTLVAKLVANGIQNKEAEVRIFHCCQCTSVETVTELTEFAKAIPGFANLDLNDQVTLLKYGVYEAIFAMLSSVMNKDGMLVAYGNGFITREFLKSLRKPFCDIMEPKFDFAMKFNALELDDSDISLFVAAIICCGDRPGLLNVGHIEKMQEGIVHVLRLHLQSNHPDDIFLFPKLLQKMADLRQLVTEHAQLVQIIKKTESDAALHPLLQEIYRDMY
The experiment in a line: Gal4-hybrid reporter gene assay PPARα (selectivity). The following applies: mean, n ≥ 3, Fig. 8. The procedure:
as §1

The target in assay [5] is T4, THRα (Homo sapiens, UniProt P10827).
T4 construct: expressed in transfected cells; host or cells: HEK293T
T4 sequence (P10827 128-410 isoform P10827-2 limits assumed): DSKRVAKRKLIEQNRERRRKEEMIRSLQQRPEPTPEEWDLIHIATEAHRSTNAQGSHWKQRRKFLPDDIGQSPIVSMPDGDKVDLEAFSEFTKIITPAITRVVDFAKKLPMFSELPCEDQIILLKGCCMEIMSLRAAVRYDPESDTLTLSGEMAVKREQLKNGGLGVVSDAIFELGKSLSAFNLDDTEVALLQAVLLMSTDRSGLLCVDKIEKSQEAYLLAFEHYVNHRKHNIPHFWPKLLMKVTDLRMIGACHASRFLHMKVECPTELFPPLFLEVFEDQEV
The experiment in a line: Gal4-hybrid reporter gene assay THRα. As to conditions: n ≥ 3; for fold act. THRα: mean, Fig. 8; for EC50: HEK293T, Gal4-hybrid reporter, Inactive = tested 1–300 μM; for EC50 / max. fold activation THRα: mean ± S.E.M.; for max. fold activation THRα: maximum reporter activation vs DMSO (0.1%) treated cells. How it is done:
as §1

Broadly, the EC50 is the concentration that produces a half-maximal response. Lower therefore signals an effect from little substance.

Turning to `O=C(O)/C=C/C(=O)c1ccc2ccccc2c1` [4.8, (E)-4-Oxo-4-(naphthalen-2-yl)but-2-enoic acid], in assay [1] (40 μM), the “fold act. VDR” value amounted to 3 fold. The “fold act. RXRα” value in assay [2] (40 μM) is 5 fold. Further, in assay [2], the EC50 was determined as 26 ± 3 µM and the “max. fold activation RXRα” value is “(4.5 ± 0.5-fold)”. The “fold act. CAR” value in assay [3] (40 μM) is listed as 3 fold. Moreover, the “fold act. PPARα” value in assay [4] (40 μM) was determined as 7 fold. The “fold act. THRα” value in assay [5] (40 μM) amounted to 16 fold. Also, in assay [5], the concentration giving a half-maximal response (EC50) amounted to 39 ± 1 µM and the “max. fold activation THRα” value is “(28 ± 1-fold)”.

Turning to `CCOc1ccc(-c2cc(C(=O)O)co2)cc1` [3.1, 5-(4-Ethoxyphenyl)furan-3-carboxylic acid], the “fold act. VDR” value in assay [1] (10 μM) is on record as 3 fold. Besides, the “fold act. RXRα” value in assay [2] (10 μM) was determined as 4 fold. Further, in assay [2], a half-maximal effect (EC50) was put at 0.9 ± 0.2 µM and the “max. fold activation RXRα” value is “(4.3 ± 0.5-fold)”. Moreover, in assay [3] (10 μM), the “fold act. CAR” value stood at 3 fold. Further, the “fold act. PPARα” value in assay [4] (10 μM) is recorded as 5 fold. Moreover, in assay [5] (10 μM), the “fold act. THRα” value is reported as 4 fold. For the same compound, in assay [5], the EC50 amounted to 1.5 ± 0.2 µM and the “max. fold activation THRα” value was “(3.7 ± 0.2-fold)”.

For `O=C(O)/C=C/C(=O)c1ccc(-c2ccccc2)cc1` [4.7, (E)-4-([1,1′-Biphenyl]-4-yl)-4-oxobut-2-enoic acid], in assay [1] (30 μM), the “fold act. VDR” value worked out at 2 fold. Also, the “fold act. RXRα” value in assay [2] (30 μM) turned out to be 1 fold. The “EC50 RXRα” value in assay [2] is recorded as “Inactive”. Further, in assay [3] (30 μM), the “fold act. CAR” value is given as 2 fold. Moreover, in assay [4] (30 μM), the “fold act. PPARα” value is listed as 6 fold. Also, the “fold act. THRα” value in assay [5] (30 μM) was found to be 15 fold. Moreover, in assay [5], the 50% effective concentration (EC50) was 16 ± 7 µM and the “max. fold activation THRα” value is on record as “(14.8 ± 1.0-fold)”.

Consider `O=C(O)/C=C/C(=O)c1ccc(Cl)cc1Cl` [4.6, (E)-4-Oxo-4-(2,4-dichlorophenyl)but-2-enoic acid], for which the “fold act. VDR” value in assay [1] (30 μM) was found to be 1 fold. In addition, the “fold act. RXRα” value in assay [2] (30 μM) was determined as 1 fold. Further, in assay [2], the “EC50 RXRα” value is listed as “Inactive”. In addition, in assay [3] (30 μM), the “fold act. CAR” value is reported as 1 fold. The “fold act. PPARα” value in assay [4] (30 μM) is 1 fold. For the same compound, the “fold act. THRα” value in assay [5] (30 μM) is 2 fold. Besides, in assay [5], a half-maximal response (EC50) required 43 ± 3 µM and the “max. fold activation THRα” value is reported as “(4.2 ± 0.3-fold)”.

These data come from PMC12352620, “Fragment-based discovery of dual ligand pharmacophores for lipid-sensing transcription factors for designed polypharmacology” (RSC Medicinal Chemistry, 2025).
